Results reported in ChEMBL document CHEMBL5620391 (Eur J Med Chem, 2023).
pIC50: −log10 of the molar value. Blank lines part the entries; values can stand above or below the molecule they belong to.

Experiments:
[1] = molecular target: Serine/threonine-protein kinase mTOR (Homo sapiens, UniProt P42345); assay: Inhibition of N-terminal FLAG-tagged recombinant human mTOR (1362 to end residues) using ULight-4E-BP1 (Thr37/46) peptide as substrate incubated for 30 mins in presence of ATP by LANCE ultra assay
[2] = molecular target: Phosphatidylinositol 4,5-bisphosphate 3-kinase catalytic subunit alpha isoform (Homo sapiens, UniProt P42336); assay: Inhibition of PI3Kalpha (unknown origin) using PIP2 as substrate incubated for 60 mins in presence of ATP by ADP-Glo assay
[3] = molecular target: Phosphatidylinositol 4,5-bisphosphate 3-kinase catalytic subunit gamma isoform (Homo sapiens, UniProt P48736); assay: Inhibition of PI3Kgamma (unknown origin) using PIP2 as substrate incubated for 60 mins in presence of ATP by ADP-Glo assay
[4] = molecular target: T1, Phosphatidylinositol 4,5-bisphosphate 3-kinase catalytic subunit delta isoform (Homo sapiens, UniProt O00329); assay: Inhibition of PI3Kdelta (unknown origin) using PIP2 as substrate incubated for 60 mins in presence of ATP by ADP-Glo assay
T1 sequence (O00329 whole entry): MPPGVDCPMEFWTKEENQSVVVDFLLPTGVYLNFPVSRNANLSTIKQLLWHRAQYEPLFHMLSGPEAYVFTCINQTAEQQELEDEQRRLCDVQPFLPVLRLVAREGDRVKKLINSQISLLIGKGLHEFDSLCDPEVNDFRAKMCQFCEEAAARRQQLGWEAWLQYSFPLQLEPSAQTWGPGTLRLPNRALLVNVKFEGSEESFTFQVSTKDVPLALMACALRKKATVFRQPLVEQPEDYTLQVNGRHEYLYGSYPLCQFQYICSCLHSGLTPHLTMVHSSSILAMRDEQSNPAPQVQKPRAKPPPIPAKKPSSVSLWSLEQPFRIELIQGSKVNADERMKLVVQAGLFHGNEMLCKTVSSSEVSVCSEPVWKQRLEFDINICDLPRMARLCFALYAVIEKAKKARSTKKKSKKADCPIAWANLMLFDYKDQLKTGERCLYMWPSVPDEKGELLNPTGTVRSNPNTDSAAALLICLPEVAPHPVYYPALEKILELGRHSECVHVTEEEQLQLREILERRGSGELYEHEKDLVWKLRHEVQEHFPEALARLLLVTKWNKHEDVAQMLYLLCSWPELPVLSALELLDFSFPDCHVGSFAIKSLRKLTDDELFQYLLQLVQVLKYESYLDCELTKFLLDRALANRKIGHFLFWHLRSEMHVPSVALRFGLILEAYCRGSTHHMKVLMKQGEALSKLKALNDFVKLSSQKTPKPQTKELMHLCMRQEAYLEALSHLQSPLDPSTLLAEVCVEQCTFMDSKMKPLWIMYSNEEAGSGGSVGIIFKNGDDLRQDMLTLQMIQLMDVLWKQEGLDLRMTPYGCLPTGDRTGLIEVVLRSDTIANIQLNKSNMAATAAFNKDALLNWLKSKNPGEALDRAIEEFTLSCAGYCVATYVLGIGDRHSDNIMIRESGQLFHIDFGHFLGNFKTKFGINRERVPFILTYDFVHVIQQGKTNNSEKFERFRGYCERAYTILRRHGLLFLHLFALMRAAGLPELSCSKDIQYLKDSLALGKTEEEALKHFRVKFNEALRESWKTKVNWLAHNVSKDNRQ

[5] = molecular target: Phosphatidylinositol 4,5-bisphosphate 3-kinase catalytic subunit beta isoform (Homo sapiens, UniProt P42338); assay: Inhibition of PI3Kbeta (unknown origin) using PIP2 as substrate incubated for 60 mins in presence of ATP by ADP-Glo assay
[6] = Toxicity in nude BALB/c mouse xenografted with human HL-60 cells assessed as toxic sign in spleen at 5 to 10 mg/kg, ip administered for 21 days consecutively by H and E staining based analysis; type: organism-based; settings: in vivo, 504 h, dose 5-10 mg/kg, time 21 day
[7] = AUC (0 to infinity) in fasted Sprague-Dawley rat at 2 mg/kg, iv measured for 24 hrs by LC-MS/MS analysis; type: ADME, organism-based; settings: in vivo
[8] = AUC (0 to infinity) in fasted Sprague-Dawley rat at 10 mg/kg, po measured for 24 hrs by LC-MS/MS analysis; type: ADME, organism-based; settings: in vivo
[9] = Toxicity in nude BALB/c mouse xenografted with human HL-60 cells assessed as toxic sign in lung at 5 to 10 mg/kg, ip administered for 21 days consecutively by H and E staining based analysis; type: organism-based; settings: in vivo, 504 h, dose 5-10 mg/kg, time 21 day
[10] = MRT (infinity) in fasted Sprague-Dawley rat at 2 mg/kg, iv measured for 24 hrs by LC-MS/MS analysis; type: ADME, organism-based; settings: in vivo
[11] = Half life in fasted Sprague-Dawley rat at 2 mg/kg, iv measured for 24 hrs by LC-MS/MS analysis; type: ADME, organism-based; settings: in vivo
[12] = Toxicity in nude BALB/c mouse xenografted with human HL-60 cells assessed as toxic sign in heart at 5 to 10 mg/kg, ip administered for 21 days consecutively by H and E staining based analysis; type: organism-based; settings: in vivo, 504 h, dose 5-10 mg/kg, time 21 day
[13] = Apparent volume of distribution in fasted Sprague-Dawley rat at 2 mg/kg, iv measured for 24 hrs by LC-MS/MS analysis; type: ADME, organism-based; settings: in vivo, read-out: Vz
[14] = Half life in fasted Sprague-Dawley rat at 10 mg/kg, po measured for 24 hrs by LC-MS/MS analysis; type: ADME, organism-based; settings: in vivo
[15] = Tmax in fasted Sprague-Dawley rat at 10 mg/kg, po measured for 24 hrs by LC-MS/MS analysis; type: ADME, organism-based; settings: in vivo
[16] = Cmax in fasted Sprague-Dawley rat at 10 mg/kg, po measured for 24 hrs by LC-MS/MS analysis; type: ADME, organism-based; settings: in vivo
[17] = tested on: HL-60; assay: Induction of apoptosis in human HL-60 cells assessed as viable cells at 0.25 uM incubated for 48 hrs by Annexin V-FITC/PI staining based flow cytometry (reference value: 97.4 %); type: functional; settings: read-out: Activity
[18] = Toxicity in nude BALB/c mouse xenografted with human HL-60 cells assessed as toxic sign in kidney at 5 to 10 mg/kg, ip administered for 21 days consecutively by H and E staining based analysis; type: organism-based; settings: in vivo, 504 h, dose 5-10 mg/kg, time 21 day
[19] = tested on: HL-60; assay: Induction of apoptosis in human HL-60 cells assessed as viable cells at 1 uM incubated for 48 hrs by Annexin V-FITC/PI staining based flow cytometry (reference value: 97.4 %); type: functional; settings: read-out: Activity
[20] = Clearance in fasted Sprague-Dawley rat at 2 mg/kg, iv measured for 24 hrs by LC-MS/MS analysis; type: ADME, organism-based; settings: in vivo
[21] = tested on: HL-60; assay: Induction of apoptosis in human HL-60 cells assessed as viable cells at 0.5 uM incubated for 48 hrs by Annexin V-FITC/PI staining based flow cytometry (reference value: 97.4 %); type: functional; settings: read-out: Activity
[22] = Oral bioavailability in fasted Sprague-Dawley rat at 10 mg/kg measured for 24 hrs by LC-MS/MS analysis; type: ADME, organism-based; settings: in vivo
[23] = Toxicity in nude BALB/c mouse xenografted with human HL-60 cells assessed as toxic sign in liver at 5 to 10 mg/kg, ip administered for 21 days consecutively by H and E staining based analysis; type: organism-based; settings: in vivo, 504 h, dose 5-10 mg/kg, time 21 day
[24] = AUC (0 to t) in fasted Sprague-Dawley rat at 10 mg/kg, po measured for 24 hrs by LC-MS/MS analysis; type: ADME, organism-based; settings: in vivo
[25] = AUC (0 to t) in fasted Sprague-Dawley rat at 2 mg/kg, iv measured for 24 hrs by LC-MS/MS analysis; type: ADME, organism-based; settings: in vivo
[26] = Toxicity in nude BALB/c mouse xenografted with human HL-60 cells assessed as body weight change at 5 to 10 mg/kg, ip administered for 21 days consecutively; type: organism-based; settings: in vivo, 504 h, dose 5-10 mg/kg, time 21 day
[27] = Toxicity in nude BALB/c mouse xenografted with human HL-60 cells assessed as toxic sign in spleen at 5 mg/kg, ip administered for 21 days consecutively by H and E staining based analysis; type: organism-based; settings: in vivo, 504 h, time 21 day
[28] = tested on: HL-60; assay: Antitumor activity against human HL-60 cells xenografted in nude BALB/c mouse assessed as tumor growth inhibition at 5 mg/kg, ip administered for 21 days consecutively relative to control; type: functional; settings: HL-60, 504 h, time 21 day, read-out: TGI
[29] = tested on: HL-60; assay: Antiproliferative activity against human HL-60 cells incubated for 48 hrs by CCK8 assay; type: functional, cell-based; settings: HL-60, 48 h
[30] = Toxicity in nude BALB/c mouse xenografted with human HL-60 cells assessed as toxic sign in lung at 5 mg/kg, ip administered for 21 days consecutively by H and E staining based analysis; type: organism-based; settings: in vivo, 504 h, time 21 day
[31] = Toxicity in nude BALB/c mouse xenografted with human HL-60 cells assessed as toxic sign in liver at 5 mg/kg, ip administered for 21 days consecutively by H and E staining based analysis; type: organism-based; settings: in vivo, 504 h, time 21 day
[32] = Antiproliferative activity against human MOLM16 cells incubated for 48 hrs by CCK8 assay; settings: MOLM16, 48 h
[33] = Toxicity in nude BALB/c mouse xenografted with human HL-60 cells assessed as body weight change at 5 mg/kg, ip administered for 21 days consecutively; type: organism-based; settings: in vivo, 504 h, time 21 day
[34] = Toxicity in nude BALB/c mouse xenografted with human HL-60 cells assessed as toxic sign in kidney at 5 mg/kg, ip administered for 21 days consecutively by H and E staining based analysis; type: organism-based; settings: in vivo, 504 h, time 21 day
[35] = Toxicity in nude BALB/c mouse xenografted with human HL-60 cells assessed as toxic sign in heart at 5 mg/kg, ip administered for 21 days consecutively by H and E staining based analysis; type: organism-based; settings: in vivo, 504 h, time 21 day
[36] = tested on: KG-1; assay: Antiproliferative activity against human KG-1 cells incubated for 48 hrs by CCK8 assay; type: functional, cell-based; settings: KG-1, 48 h
[37] = tested on: EOL1; assay: Antiproliferative activity against human EOL1 cells incubated for 48 hrs by CCK8 assay; type: functional, cell-based; settings: EOL1, 48 h
[38] = tested on: MV4-11; assay: Antiproliferative activity against human MV4-11 cells incubated for 48 hrs by CCK8 assay; type: functional, cell-based; settings: MV4-11, 48 h

Sequence of Phosphatidylinositol 4,5-bisphosphate 3-kinase catalytic subunit gamma isoform (P48736 whole entry, canonical isoform): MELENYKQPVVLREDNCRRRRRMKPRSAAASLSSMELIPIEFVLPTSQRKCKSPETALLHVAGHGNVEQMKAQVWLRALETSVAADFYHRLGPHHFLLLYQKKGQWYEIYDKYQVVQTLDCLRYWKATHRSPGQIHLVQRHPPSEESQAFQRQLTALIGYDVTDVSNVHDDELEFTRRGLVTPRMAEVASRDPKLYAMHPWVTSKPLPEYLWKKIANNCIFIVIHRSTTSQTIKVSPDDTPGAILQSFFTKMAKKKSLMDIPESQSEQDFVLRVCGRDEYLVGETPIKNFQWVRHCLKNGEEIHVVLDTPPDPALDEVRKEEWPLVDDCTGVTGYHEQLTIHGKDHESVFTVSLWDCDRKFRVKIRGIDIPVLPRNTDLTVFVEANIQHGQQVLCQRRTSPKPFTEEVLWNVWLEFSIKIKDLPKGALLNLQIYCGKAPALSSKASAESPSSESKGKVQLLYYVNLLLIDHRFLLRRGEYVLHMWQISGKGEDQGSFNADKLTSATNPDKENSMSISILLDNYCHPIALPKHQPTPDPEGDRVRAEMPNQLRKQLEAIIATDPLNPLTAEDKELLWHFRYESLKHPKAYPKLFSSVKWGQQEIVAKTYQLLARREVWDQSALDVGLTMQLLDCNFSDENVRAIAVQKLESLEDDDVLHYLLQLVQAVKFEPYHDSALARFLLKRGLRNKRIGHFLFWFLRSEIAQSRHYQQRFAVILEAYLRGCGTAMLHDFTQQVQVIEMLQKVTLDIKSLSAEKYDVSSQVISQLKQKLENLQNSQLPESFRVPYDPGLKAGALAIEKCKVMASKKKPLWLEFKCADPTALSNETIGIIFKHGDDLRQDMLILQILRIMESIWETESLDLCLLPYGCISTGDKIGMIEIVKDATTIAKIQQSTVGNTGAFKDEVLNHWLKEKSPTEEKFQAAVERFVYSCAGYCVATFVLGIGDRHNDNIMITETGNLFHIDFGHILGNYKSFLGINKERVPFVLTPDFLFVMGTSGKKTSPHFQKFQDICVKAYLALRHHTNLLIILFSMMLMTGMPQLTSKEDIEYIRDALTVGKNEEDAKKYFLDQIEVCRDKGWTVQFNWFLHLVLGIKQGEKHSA
Sequence of Phosphatidylinositol 4,5-bisphosphate 3-kinase catalytic subunit beta isoform (P42338 whole entry, canonical isoform): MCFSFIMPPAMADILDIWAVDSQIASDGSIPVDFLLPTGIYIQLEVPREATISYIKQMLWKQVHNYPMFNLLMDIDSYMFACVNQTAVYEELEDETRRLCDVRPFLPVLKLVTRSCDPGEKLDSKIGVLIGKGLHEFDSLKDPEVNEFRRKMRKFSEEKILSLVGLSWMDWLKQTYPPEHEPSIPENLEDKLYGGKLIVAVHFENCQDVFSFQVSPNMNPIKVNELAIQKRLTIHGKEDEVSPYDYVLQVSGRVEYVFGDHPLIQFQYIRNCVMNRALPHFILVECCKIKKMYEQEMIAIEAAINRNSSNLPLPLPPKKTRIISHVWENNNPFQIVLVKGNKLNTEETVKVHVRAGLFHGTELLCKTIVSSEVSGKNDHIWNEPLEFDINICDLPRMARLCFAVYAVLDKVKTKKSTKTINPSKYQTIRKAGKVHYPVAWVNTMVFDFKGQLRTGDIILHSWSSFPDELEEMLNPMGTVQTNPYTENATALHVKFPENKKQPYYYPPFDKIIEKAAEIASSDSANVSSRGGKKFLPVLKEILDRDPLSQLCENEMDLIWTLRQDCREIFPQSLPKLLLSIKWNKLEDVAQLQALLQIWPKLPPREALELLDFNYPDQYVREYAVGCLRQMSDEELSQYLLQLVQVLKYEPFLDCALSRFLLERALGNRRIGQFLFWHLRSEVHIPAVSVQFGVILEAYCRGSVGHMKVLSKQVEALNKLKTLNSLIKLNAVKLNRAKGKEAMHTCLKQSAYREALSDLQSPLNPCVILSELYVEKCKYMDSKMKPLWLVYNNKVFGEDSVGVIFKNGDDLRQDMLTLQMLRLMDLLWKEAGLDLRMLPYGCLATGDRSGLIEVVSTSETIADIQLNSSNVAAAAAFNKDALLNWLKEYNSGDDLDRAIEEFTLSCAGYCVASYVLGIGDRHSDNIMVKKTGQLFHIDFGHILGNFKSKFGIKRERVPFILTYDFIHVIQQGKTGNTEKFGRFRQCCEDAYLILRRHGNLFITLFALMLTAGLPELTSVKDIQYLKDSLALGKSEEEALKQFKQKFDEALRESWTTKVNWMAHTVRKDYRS
Sequence of Phosphatidylinositol 4,5-bisphosphate 3-kinase catalytic subunit alpha isoform (P42336 whole entry, canonical isoform): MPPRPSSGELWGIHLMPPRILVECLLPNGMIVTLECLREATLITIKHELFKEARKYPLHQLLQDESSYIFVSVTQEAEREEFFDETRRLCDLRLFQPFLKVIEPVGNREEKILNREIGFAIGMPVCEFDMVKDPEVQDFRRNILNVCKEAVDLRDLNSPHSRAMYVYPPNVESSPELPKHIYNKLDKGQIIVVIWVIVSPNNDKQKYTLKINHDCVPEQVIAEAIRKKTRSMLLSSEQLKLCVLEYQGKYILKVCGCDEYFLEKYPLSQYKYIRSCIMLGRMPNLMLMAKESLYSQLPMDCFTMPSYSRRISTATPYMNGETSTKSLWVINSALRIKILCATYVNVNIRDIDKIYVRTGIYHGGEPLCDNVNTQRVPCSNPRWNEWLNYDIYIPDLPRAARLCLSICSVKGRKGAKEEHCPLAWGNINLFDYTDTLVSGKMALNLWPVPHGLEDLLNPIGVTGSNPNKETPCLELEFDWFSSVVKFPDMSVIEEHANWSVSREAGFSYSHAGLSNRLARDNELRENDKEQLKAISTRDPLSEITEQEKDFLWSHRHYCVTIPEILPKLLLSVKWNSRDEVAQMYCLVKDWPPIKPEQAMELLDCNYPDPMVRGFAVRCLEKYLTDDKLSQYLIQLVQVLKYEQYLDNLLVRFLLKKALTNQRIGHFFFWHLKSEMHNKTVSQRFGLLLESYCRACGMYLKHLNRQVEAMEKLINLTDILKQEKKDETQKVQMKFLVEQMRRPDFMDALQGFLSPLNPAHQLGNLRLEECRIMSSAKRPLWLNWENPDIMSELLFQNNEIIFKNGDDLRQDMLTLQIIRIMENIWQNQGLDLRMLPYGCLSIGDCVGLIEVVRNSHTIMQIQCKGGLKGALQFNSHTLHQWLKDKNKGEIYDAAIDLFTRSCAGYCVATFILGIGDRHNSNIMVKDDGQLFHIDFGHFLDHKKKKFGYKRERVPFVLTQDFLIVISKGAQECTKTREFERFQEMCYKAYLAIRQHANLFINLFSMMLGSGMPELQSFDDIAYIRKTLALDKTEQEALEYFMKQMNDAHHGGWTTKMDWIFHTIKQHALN

SMILES: O=S(=O)(Nc1cc(-c2cnc3[nH]ncc3c2)cnc1Cl)c1ccccc1
pIC50 [1]: 7.49

SMILES: O=S(=O)(Nc1cc(-c2cnc3[nH]nc(-c4ccncc4)c3c2)cnc1Cl)c1ccc(F)cc1
Activity [6]: Non-Toxic | AUC(0-inf) [7]: 903 ng·h/mL | AUC(0-inf) [8]: 121 ng·h/mL | Activity [9]: Non-Toxic | pIC50 [2]: 9.19 | MRT inf [10]: 0.593 h | half-life [11]: 2.29 h | Activity [12]: Non-Toxic | Vd [13]: 7.26 L/kg | half-life [14]: 4.48 h | pIC50 [3]: 9.19 | Tmax [15]: 2.8 h | Cmax [16]: 15.5 ng/mL | viability at 0.25 µM [17]: 96.4% | Activity [18]: Non-Toxic | viability at 1 µM [19]: 53.5% | clearance [20]: 37 mL/min/kg | viability at 0.5 µM [21]: 90.4% | pIC50 [5]: 8.80 | bioavailability [22]: 2.68% | Activity [23]: Non-Toxic | AUC(0-t) at 24 h [24]: 104 ng·h/mL | AUC(0-t) at 24 h [25]: 898 ng·h/mL | Activity [26]: Non-Toxic

SMILES: Cn1c(=O)n(-c2ccc(C(C)(C)C#N)cc2)c2c3cc(-c4cnc5ccccc5c4)ccc3ncc21 [DACTOLISIB]
Activity [27]: Non-Toxic | inhibition in vivo at 5 mg/kg [28]: 62% | pIC50 [29]: 6.29 | Activity [30]: Non-Toxic | Activity [31]: Non-Toxic | pIC50 [32]: 6.30 | Activity [33]: Non-Toxic | Activity [34]: Non-Toxic | Activity [35]: Non-Toxic | pIC50 [36]: 5.88 | pIC50 [37]: 5.98 | pIC50 [38]: 7.52

Other lines, results leading:

pIC50 [2]: 8.93 | pIC50 [1]: 8.37 | pIC50 [3]: 8.13 | pIC50 [4]: 9.17 | pIC50 [5]: 8.36
SMILES: O=S(=O)(Nc1cc(-c2cnc3[nH]nc(-c4ccncc4)c3c2)cnc1Cl)c1ccccc1

pIC50 [1]: 8.58 | pIC50 [4]: 8.91
SMILES: O=S(=O)(Nc1cc(-c2cnc3[nH]nc(-c4ccccc4)c3c2)cnc1Cl)c1ccccc1
